Biological target: T1, Protein deacetylase HDAC6 (Homo sapiens, UniProt Q9UBN7)
T1 sequence (Q9UBN7 whole entry): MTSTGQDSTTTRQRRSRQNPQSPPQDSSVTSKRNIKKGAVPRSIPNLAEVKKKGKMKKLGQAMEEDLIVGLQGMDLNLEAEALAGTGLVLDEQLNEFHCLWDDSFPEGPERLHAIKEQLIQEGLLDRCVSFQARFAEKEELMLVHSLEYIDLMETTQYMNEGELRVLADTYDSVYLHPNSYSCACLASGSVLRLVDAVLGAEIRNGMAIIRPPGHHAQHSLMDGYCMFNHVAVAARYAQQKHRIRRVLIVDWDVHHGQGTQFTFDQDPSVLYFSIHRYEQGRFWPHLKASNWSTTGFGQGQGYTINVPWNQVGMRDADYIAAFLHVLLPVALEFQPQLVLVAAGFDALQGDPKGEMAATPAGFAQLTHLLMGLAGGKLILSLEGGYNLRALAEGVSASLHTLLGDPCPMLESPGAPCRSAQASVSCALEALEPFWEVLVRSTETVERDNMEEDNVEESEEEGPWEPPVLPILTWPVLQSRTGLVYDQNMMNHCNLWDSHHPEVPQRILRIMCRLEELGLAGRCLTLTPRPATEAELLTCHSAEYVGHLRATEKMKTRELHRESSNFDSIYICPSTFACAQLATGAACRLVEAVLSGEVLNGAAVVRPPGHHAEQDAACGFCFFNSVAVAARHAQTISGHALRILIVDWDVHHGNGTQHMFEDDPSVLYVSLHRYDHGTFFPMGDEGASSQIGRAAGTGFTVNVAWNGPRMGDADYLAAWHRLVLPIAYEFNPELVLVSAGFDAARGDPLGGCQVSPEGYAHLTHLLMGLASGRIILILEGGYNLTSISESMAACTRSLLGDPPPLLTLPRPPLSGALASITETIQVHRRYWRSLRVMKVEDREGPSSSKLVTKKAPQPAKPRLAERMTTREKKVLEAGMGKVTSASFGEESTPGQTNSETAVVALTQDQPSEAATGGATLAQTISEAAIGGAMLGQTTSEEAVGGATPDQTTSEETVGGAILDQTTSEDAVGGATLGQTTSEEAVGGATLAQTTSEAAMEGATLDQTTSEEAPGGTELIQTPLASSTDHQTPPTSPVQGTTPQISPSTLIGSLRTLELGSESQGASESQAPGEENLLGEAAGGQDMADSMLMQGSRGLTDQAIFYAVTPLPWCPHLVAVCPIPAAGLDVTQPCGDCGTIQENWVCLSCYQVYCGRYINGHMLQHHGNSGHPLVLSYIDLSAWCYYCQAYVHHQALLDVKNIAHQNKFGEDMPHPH
Assay: In Vitro Enzymatic Assay: The assay principle is well known and all necessary reagents like enzymes, substrates, developer and reference compounds are commercially available. Stock solutions (10 mM in DMSO) of compounds were serially diluted 1:3 in 11 concentrations with a top concentration of 200 μM for HDAC1,2,3 and 2 μM for HDAC6 and HDAC8. The enzymatic reactions were conducted in a mixture containing assay buffer, bovine serum albumin, HDAC substrate, and a test compound. After enzymatic reaction, developer was added and after an additional incubation time, fluorescence intensity was measured at an excitation wavelength of 360 nm and an emission wavelength of 460 nm. All experiments were performed in duplicate.

**Q.** Which IC50 does the source give for `Cn1cc(CNCC2CCN(c3nc4cc(C(=O)NO)ccc4o3)CC2)c2ccccc21` here?
**A.** 41 nM
